Laboratory results as given in patent US8563729B2, “Thienopyridone derivatives as AMP-activated protein kinase (AMPK) activators” (Merck Patent GmbH, priority 2008, dated 2013).

Key:
[1] = ob/ob and db/db mice, 8 day AICAR administration; cited from earlier work
[2] = target: T1, AMPK protein (recombinant α1β1γ2) (Homo sapiens, UniProt Q13131+Q9Y478); test: AMPK enzymatic activity (Delfia, AMARA peptide substrate); format: biochemical; conditions: compound 30 μM vs AMP 30 μM; 125 μM ATP; ratio 90% or higher = direct activator
T1 construct: made in house; host or cells: E. coli
How it was run: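 Human α1β1γ2 AMPK expressed in E. coli, reactivated in vitro by LKB1, assayed in 50 mM Hepes pH 7.4 with 125 μM ATP and AMARA peptide for 30 min at room temperature; phosphorylation detected by Delfia anti-phosphoserine antibody. Activity = % of basal control at 30 μM compound relative to that of 30 μM AMP.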

H-2 Kb cells = test: Glucose uptake in H-2 Kb cells (in vitro cellular test); format: cell-based, mouse; conditions: H-2 Kb cells differentiated in muscle, 4 hours incubation, 2-deoxy-D-[1,2 3H] glucose uptake 10 min
How it was run: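 H-2 Kb tsA58 mouse cells were differentiated to muscle at 37° C without interferon-γ for 3 days, then exposed to compound for 4 h in 1 g/l glucose DMEM. Uptake of 3H-2-deoxyglucose over 10 min was measured by scintillation. Activity was taken as the compound concentration matching or exceeding uptake with insulin (170 nM), scored ≦10 or >10 micro Molar.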

T1 sequence (Q13131 whole entry): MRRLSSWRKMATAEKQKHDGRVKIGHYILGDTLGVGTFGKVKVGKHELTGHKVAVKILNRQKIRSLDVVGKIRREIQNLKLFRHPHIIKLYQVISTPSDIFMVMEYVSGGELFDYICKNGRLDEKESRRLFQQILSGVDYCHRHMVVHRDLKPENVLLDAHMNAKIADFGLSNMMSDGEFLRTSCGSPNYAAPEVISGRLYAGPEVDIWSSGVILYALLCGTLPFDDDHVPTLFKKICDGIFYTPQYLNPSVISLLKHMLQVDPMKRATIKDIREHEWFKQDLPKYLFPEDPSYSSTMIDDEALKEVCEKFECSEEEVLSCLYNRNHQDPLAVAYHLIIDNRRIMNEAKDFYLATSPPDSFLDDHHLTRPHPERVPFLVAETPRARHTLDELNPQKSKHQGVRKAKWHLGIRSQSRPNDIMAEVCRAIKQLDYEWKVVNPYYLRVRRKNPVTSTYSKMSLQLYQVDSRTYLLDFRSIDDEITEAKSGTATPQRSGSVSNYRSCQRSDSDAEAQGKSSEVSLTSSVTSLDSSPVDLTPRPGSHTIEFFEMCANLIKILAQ
T1 sequence (Q9Y478 whole entry): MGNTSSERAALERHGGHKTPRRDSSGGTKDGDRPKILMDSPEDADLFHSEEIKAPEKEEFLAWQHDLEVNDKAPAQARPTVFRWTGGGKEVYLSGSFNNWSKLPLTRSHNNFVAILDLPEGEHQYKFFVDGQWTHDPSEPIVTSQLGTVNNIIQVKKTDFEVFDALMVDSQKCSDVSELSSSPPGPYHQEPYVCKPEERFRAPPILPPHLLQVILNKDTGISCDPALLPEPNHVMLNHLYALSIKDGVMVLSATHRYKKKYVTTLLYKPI
T1 sequence (Q9UGJ0 whole entry partner): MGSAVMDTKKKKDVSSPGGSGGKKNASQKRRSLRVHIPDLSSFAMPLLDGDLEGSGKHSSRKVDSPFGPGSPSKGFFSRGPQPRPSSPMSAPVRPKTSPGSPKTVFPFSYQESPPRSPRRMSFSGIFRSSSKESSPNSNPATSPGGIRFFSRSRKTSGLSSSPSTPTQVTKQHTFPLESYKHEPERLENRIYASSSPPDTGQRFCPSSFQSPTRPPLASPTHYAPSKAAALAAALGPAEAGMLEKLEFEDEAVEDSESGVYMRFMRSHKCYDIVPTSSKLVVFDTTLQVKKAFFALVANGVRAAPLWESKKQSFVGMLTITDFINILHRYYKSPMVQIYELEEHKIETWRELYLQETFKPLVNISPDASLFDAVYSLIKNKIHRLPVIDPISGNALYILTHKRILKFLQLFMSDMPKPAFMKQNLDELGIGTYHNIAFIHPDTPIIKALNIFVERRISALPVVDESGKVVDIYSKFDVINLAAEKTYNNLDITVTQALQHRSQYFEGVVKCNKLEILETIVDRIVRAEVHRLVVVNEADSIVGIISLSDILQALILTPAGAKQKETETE

NC(=O)c1ncn([C@@H]2O[C@H](CO)[C@@H](O)[C@H]2O)c1N [AICAR]
reduction of blood glucose [1]: 35%

CC(C)c1ccc(-c2c(Cl)sc3[nH]c(=O)c(-c4ccccc4)c(O)c23)cc1 [Compound 182]
activity: Ratio between the % of control (basal activity) of compound of formula (I) at 30 μM and the % of control (basal activity) of AMP at 30 μM [2]: 165% | Activity (table III): Concentration of compound (I) for a glucose uptake equal or higher to glucose uptake induced by insulin (170 nM) (H-2 Kb cells): + (^+ or *concentration of compound (I) >10 micro Molar)

COc1cccc(-c2c(O)c3c(-c4ccccc4)csc3[nH]c2=O)c1 [Compound 23]
activity: Ratio between the % of control (basal activity) of compound of formula (I) at 30 μM and the % of control (basal activity) of AMP at 30 μM [2]: 202% | Activity (table III): Concentration of compound (I) for a glucose uptake equal or higher to glucose uptake induced by insulin (170 nM) (H-2 Kb cells): * (^+ or *concentration of compound (I) >10 micro Molar)

COc1ccc(-c2c(Cl)sc3[nH]c(=O)c(-c4cccc(C#N)c4)c(O)c23)cc1 [Compound 129]
activity: Ratio between the % of control (basal activity) of compound of formula (I) at 30 μM and the % of control (basal activity) of AMP at 30 μM [2]: 102% | Activity (table III): Concentration of compound (I) for a glucose uptake equal or higher to glucose uptake induced by insulin (170 nM) (H-2 Kb cells): ** (^++ or **concentration of compound (I) ≦10 micro Molar)

CCc1ccc(-c2c(Cl)sc3[nH]c(=O)c(-c4ccccc4)c(O)c23)c(O)c1 [Compound 209]
activity: Ratio between the % of control (basal activity) of compound of formula (I) at 30 μM and the % of control (basal activity) of AMP at 30 μM [2]: 297% | Activity (table III): Concentration of compound (I) for a glucose uptake equal or higher to glucose uptake induced by insulin (170 nM) (H-2 Kb cells): ++ (^++ or **concentration of compound (I) ≦10 micro Molar)

O=c1[nH]c2sc(Br)c(-c3ccccc3)c2c(O)c1-c1ccccc1 [Compound 161]
activity: Ratio between the % of control (basal activity) of compound of formula (I) at 30 μM and the % of control (basal activity) of AMP at 30 μM [2]: 113% | Activity (table III): Concentration of compound (I) for a glucose uptake equal or higher to glucose uptake induced by insulin (170 nM) (H-2 Kb cells): ** (^++ or **concentration of compound (I) ≦10 micro Molar)

Cc1ccc(-c2c(F)sc3[nH]c(=O)c(-c4ccc(F)cc4)c(O)c23)c(O)c1F [Compound 211]
activity: Ratio between the % of control (basal activity) of compound of formula (I) at 30 μM and the % of control (basal activity) of AMP at 30 μM [2]: 149% | Activity (table III): Concentration of compound (I) for a glucose uptake equal or higher to glucose uptake induced by insulin (170 nM) (H-2 Kb cells): + (^+ or *concentration of compound (I) >10 micro Molar)

N#Cc1cccc(-c2c(O)c3c(-c4ccc(F)cc4)c(Cl)sc3[nH]c2=O)c1 [Compound 131]
activity: Ratio between the % of control (basal activity) of compound of formula (I) at 30 μM and the % of control (basal activity) of AMP at 30 μM [2]: 331% | Activity (table III): Concentration of compound (I) for a glucose uptake equal or higher to glucose uptake induced by insulin (170 nM) (H-2 Kb cells): * (^+ or *concentration of compound (I) >10 micro Molar)

COc1ccc(-c2c(Cl)sc3[nH]c(=O)c(-c4ccccc4)c(O)c23)cc1 [Compound 139]
activity: Ratio between the % of control (basal activity) of compound of formula (I) at 30 μM and the % of control (basal activity) of AMP at 30 μM [2]: 114% | Activity (table III): Concentration of compound (I) for a glucose uptake equal or higher to glucose uptake induced by insulin (170 nM) (H-2 Kb cells): ** (^++ or **concentration of compound (I) ≦10 micro Molar)

O=c1[nH]c2sc(Cl)c(-c3ccccc3)c2c(O)c1-c1cccc(F)c1 [Compound 175]
activity: Ratio between the % of control (basal activity) of compound of formula (I) at 30 μM and the % of control (basal activity) of AMP at 30 μM [2]: 252% | Activity (table III): Concentration of compound (I) for a glucose uptake equal or higher to glucose uptake induced by insulin (170 nM) (H-2 Kb cells): + (^+ or *concentration of compound (I) >10 micro Molar)

COc1cccc(-c2c(O)c3c(-c4ccccc4)c(Cl)sc3[nH]c2=O)c1 [Compound 149]
activity: Ratio between the % of control (basal activity) of compound of formula (I) at 30 μM and the % of control (basal activity) of AMP at 30 μM [2]: 120% | Activity (table III): Concentration of compound (I) for a glucose uptake equal or higher to glucose uptake induced by insulin (170 nM) (H-2 Kb cells): ** (^++ or **concentration of compound (I) ≦10 micro Molar)

O=c1[nH]c2sc(Cl)c(-c3cc(F)c(F)cc3O)c2c(O)c1-c1ccccc1 [Compound 193]
activity: Ratio between the % of control (basal activity) of compound of formula (I) at 30 μM and the % of control (basal activity) of AMP at 30 μM [2]: 139% | Activity (table III): Concentration of compound (I) for a glucose uptake equal or higher to glucose uptake induced by insulin (170 nM) (H-2 Kb cells): + (^+ or *concentration of compound (I) >10 micro Molar)

COc1ccc(-c2c(O)c3c(-c4ccccc4)csc3[nH]c2=O)cc1 [Compound 19]
activity: Ratio between the % of control (basal activity) of compound of formula (I) at 30 μM and the % of control (basal activity) of AMP at 30 μM [2]: 96% | Activity (table III): Concentration of compound (I) for a glucose uptake equal or higher to glucose uptake induced by insulin (170 nM) (H-2 Kb cells): * (^+ or *concentration of compound (I) >10 micro Molar)

Cc1cccc(-c2c(O)c3c(-c4ccccc4)c(Cl)sc3[nH]c2=O)c1 [Compound 176]
activity: Ratio between the % of control (basal activity) of compound of formula (I) at 30 μM and the % of control (basal activity) of AMP at 30 μM [2]: 245% | Activity (table III): Concentration of compound (I) for a glucose uptake equal or higher to glucose uptake induced by insulin (170 nM) (H-2 Kb cells): ++ (^++ or **concentration of compound (I) ≦10 micro Molar)

Cc1ccc(-c2c(O)c3c(-c4ccc5ccccc5c4O)c(Cl)sc3[nH]c2=O)cc1 [Compound 186]
activity: Ratio between the % of control (basal activity) of compound of formula (I) at 30 μM and the % of control (basal activity) of AMP at 30 μM [2]: 192% | Activity (table III): Concentration of compound (I) for a glucose uptake equal or higher to glucose uptake induced by insulin (170 nM) (H-2 Kb cells): ++ (^++ or **concentration of compound (I) ≦10 micro Molar)
